Laboratory results taken from patent US20240383869A1, “ARYLACETYL INHIBITORS OF TG2 AND USES THEREOF” (UNIVERSITY OF OTTAWA, priority 2021, published 2024).
Read-outs that look alike come from different tables or passages of the source.

Legend:
hTG2 = biological target: T1, hTG2 (Homo sapiens, UniProt P21980); assay: biochemical; conditions: for Ki: read-out: KI (converted); for inactivation of TG2: isozyme selectivity, normalized [I]/α
T1 sequence (P21980 1-687): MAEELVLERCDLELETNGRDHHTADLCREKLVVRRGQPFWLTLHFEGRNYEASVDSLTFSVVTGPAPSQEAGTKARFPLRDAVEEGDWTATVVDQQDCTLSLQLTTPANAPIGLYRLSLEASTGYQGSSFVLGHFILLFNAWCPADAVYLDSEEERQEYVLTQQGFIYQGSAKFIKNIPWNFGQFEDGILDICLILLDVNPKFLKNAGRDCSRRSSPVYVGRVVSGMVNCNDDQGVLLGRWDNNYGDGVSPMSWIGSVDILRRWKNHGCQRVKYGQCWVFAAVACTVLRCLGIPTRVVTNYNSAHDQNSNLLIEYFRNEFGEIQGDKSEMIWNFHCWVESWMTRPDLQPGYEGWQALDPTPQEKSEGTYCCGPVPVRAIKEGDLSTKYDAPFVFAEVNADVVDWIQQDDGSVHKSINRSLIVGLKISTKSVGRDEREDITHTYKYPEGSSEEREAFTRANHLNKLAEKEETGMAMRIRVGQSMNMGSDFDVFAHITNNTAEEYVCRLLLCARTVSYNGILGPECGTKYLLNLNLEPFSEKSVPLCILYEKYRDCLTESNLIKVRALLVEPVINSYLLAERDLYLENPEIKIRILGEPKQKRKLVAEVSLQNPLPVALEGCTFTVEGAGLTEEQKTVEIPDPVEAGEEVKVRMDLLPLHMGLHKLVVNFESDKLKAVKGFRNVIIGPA
Method: The ability of the compounds to inhibit TG2 transamidase activity and the kinetics of TG2 inhibition were investigated using a colorimetric activity assay, as follows:
Colorimetric transamidase activity assay. The activities of hTG1, hTG2 and hTG6 were measured via a colorimetric assay using the chromogenic substrate Cbz-Glu(γ-p-nitrophenyl ester)Gly (AL5), as described (Leblanc, A. et al., “Kinetic studies of guinea pig liver transglutaminase reveal a general-base-catalyzed deacylation mechanism.” Biochemistry 2001, 40 (28), 8335-8342). Assays were conducted at 25° C. in 50 mM MOPS buffer (pH 6.95) containing 7.5 mM CaCl2. […] The substrate AL5 was prepared in as a stock solution in DMSO such that the final concentration of this co-solvent was constant at 2.5% v/v. Stock solutions of the inhibitors were made in water ranging in concentration from 100-500 μM. The reaction was initiated with the addition of enzyme, 0.10 μM hTG1, 0.25 μM hTG2 (4.6 mU/mL) or 0.32 μM hTG6. Formation of hydrolysis product, p-nitrophenolate (pNP), was monitored at 405 nm in a polystyrene 96-well microplate using a BioTek Synergy 4 plate reader. The observed first-order rate constants of inactivation (kobs) were determined via non-linear regression fit to a mono-exponential model (Eqn 1) of absorbance versus time curves. These rate constants (kobs) were in turn fit to a saturation kinetics model (Eqn 2), by non-linear regression, providing the kinetic parameters kinact and KI, as previously described by Stone and Hofsteenge (Stone, S. R. and Hofsteenge, J., “Specificity of activated human protein C.” Biochem. J. 1985, 230 (2), 497-502). […] Experiments were completed in triplicate at minimum.
Fitting of this time-dependent inactivation to a monoexponential equation gave first-order rate constants, kobs. […] In some cases, the kinetic data were fitted to a linear double reciprocal equation.

hTG6 = biological target: T2, hTG6 (Homo sapiens, UniProt O95932); assay: Colorimetric transamidase activity assay, isozyme selectivity; format: biochemical; conditions: normalized [I]/α
T2 sequence (O95932 1-706): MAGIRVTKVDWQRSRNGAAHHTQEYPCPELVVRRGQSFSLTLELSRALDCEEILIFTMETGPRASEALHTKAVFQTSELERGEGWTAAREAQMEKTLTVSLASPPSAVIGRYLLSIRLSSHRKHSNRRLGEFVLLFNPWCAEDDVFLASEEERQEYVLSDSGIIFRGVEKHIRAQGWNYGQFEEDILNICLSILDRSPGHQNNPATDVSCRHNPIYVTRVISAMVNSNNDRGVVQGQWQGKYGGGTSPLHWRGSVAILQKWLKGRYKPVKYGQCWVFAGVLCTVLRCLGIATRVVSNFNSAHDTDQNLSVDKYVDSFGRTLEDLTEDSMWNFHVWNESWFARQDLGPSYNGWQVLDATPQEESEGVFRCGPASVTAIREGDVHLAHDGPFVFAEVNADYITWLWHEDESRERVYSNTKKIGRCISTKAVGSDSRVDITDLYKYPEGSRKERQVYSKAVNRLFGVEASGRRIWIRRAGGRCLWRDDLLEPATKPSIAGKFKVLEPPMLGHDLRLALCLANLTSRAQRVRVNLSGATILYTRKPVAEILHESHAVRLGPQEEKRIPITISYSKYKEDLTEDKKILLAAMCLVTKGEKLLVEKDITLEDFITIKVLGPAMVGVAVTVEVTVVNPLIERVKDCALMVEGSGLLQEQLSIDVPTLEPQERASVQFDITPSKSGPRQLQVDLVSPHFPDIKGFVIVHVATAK
Method: Colorimetric transamidase activity assay. The activities of hTG1, hTG2 and hTG6 were measured via a colorimetric assay using the chromogenic substrate Cbz-Glu(γ-p-nitrophenyl ester)Gly (AL5), as described (Leblanc, A. et al., “Kinetic studies of guinea pig liver transglutaminase reveal a general-base-catalyzed deacylation mechanism.” Biochemistry 2001, 40 (28), 8335-8342). Assays were conducted at 25° C. in 50 mM MOPS buffer (pH 6.95) containing 7.5 mM CaCl2. […] Stock solutions of the inhibitors were made in water ranging in concentration from 100-500 μM. The reaction was initiated with the addition of enzyme, 0.10 μM hTG1, 0.25 μM hTG2 (4.6 mU/mL) or 0.32 μM hTG6. Formation of hydrolysis product, p-nitrophenolate (pNP), was monitored at 405 nm in a polystyrene 96-well microplate using a BioTek Synergy 4 plate reader. The observed first-order rate constants of inactivation (kobs) were determined via non-linear regression fit to a mono-exponential model (Eqn 1) of absorbance versus time curves. These rate constants (kobs) were in turn fit to a saturation kinetics model (Eqn 2), by non-linear regression, providing the kinetic parameters kinact and KI, as previously described by Stone and Hofsteenge (Stone, S. R. and Hofsteenge, J., “Specificity of activated human protein C.” Biochem. J. 1985, 230 (2), 497-502). […] Experiments were completed in triplicate at minimum.

[1] = fit to saturation kinetics model, 25° C., pH 6.95, 100 μM AL5

SMILES	Ki (hTG2; [1]) [µM]	inactivation of TG2 (hTG2)	inhibition of TG6 (hTG6)	kinact (hTG2; fit to saturation kinetics model, 25° C., pH 6.95, 100 μM AL5, read-out: kinact (converted)) [s⁻¹]	kinact/KI (hTG2; fit to saturation kinetics model, 25° C., pH 6.95, 100 μM AL5, read-out: kinact/KI (converted)) [M⁻¹ s⁻¹]	kinact/KI (hTG2; pH 6.95) [M⁻¹ s⁻¹]
C=CC(=O)NCCCC[C@H](NC(=O)Cc1ccccc1F)C(=O)N1CCN(C(=O)c2cccc3ccccc23)CC1 [Inhibitor 72, (S)-N-(6-(4-(1-naphthoyl)piperazin-1-yl)-5-(2-(2-fluorophenyl)acetamido)-6-oxohexyl)acrylamide]	1 ± 0.2	inactivated TG2 almost completely, in less than five minutes	none of these inhibitors showed any detectable inhibition			
C=CC(=O)NCCCC[C@H](NC(=O)Cc1ccccc1C)C(=O)N1CCN(C(=O)c2cccc3ccccc23)CC1 [Inhibitor 74, (S)-N-(6-(4-(1-naphthoyl)piperazin-1-yl)-5-(2-(2-methylphenyl)acetamido)-6-oxohexyl)acrylamide]	6.1 ± 1.8	inactivated TG2 almost completely, in less than five minutes	none of these inhibitors showed any detectable inhibition	0.035	5870	
C=CC(=O)NCCCC[C@H](NC(=O)OCc1ccccc1)C(=O)N1CCN(C(=O)c2cccc3ccccc23)CC1 [AA9, reference compound]		inactivated TG2 almost completely, in less than five minutes	none of these inhibitors showed any detectable inhibition			4070
